{
  "source": "the NIST ThermoML archive (doi:10.1021/je800628a)",
  "key": {"[1]": {"experiment": "Molar enthalpy of transition or fusion", "settings": "Crystal; DSC"}, "[2]": {"settings": "Crystal; DTA"}},
  "note": "Numbers after ± are expanded uncertainties.",
  "data": [
    {"molecule": "c1ccc2ccccc2c1", "note": "[naphthalene]", "values": [
      {"measurement": "Molar enthalpy of transition or fusion", "setting": "[1]", "result": "4.26 ± 0.131", "unit": "kcal/mol"},
      {"measurement": "Normal melting temperature", "setting": "[2]", "result": "83.0 ± 1.1", "unit": "°C"}
    ]}
  ]
}
